Measurements taken from the supplement of paper PMC10307832.

What was measured:
Assay in all cases: relative viability (nuclei count vs DMSO), 5 days (fraction); higher = more cells survive
[1] = tested on: 201T
Procedure, shortened: (§1)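 Lung cancer cell lines, seeded in 1536-well plates, were treated the following day by pin tool with a single drug or with five library-drug doses (not always all listed) in √10 steps on top of a fixed anchor-drug dose. Cells were fixed and nuclei stained in one step after 5 days, and nuclei were counted. Relative viability is the nuclei count for treated wells divided by that for vehicle wells, reported as medians of duplicate plates.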

[2] = tested on: A-427
Procedure, shortened: as §1

[3] = tested on: COR-L23
Procedure, shortened: as §1

[4] = tested on: H3255
Procedure, shortened: as §1

[5] = tested on: HCC-44
Procedure, shortened: as §1

[6] = tested on: LCLC-103H
Procedure, shortened: as §1

[7] = tested on: LCLC-97TM1
Procedure, shortened: as §1

[8] = tested on: LK-2
Procedure, shortened: as §1

[9] = tested on: LU99A
Procedure, shortened: as §1

[10] = tested on: NCI-H1563
Procedure, shortened: as §1

[11] = tested on: NCI-H1793
Procedure, shortened: as §1

[12] = tested on: NCI-H1944
Procedure, shortened: as §1

[13] = tested on: NCI-H2347
Procedure, shortened: as §1

[14] = tested on: NCI-H23
Procedure, shortened: as §1

[15] = tested on: NCI-H460
Procedure, shortened: as §1

[16] = tested on: NCI-H650
Procedure, shortened: as §1

[17] = tested on: NCI-H727
Procedure, shortened: as §1

[18] = tested on: NCI-H838
Procedure, shortened: as §1

[19] = tested on: PC-14
Procedure, shortened: as §1

[20] = tested on: PC-3 [JPC-3]
Procedure, shortened: as §1

[21] = tested on: SW 1573
Procedure, shortened: as §1

## NC(=O)Nc1cc(-c2cccc(F)c2)sc1C(=O)N[C@H]1CCCNC1 [AZD7762] + C[C@]1(O)C[C@@H](c2nc(-c3ccc4ccc(-c5ccccc5)nc4c3)c3c(N)nccn32)C1 [Linsitinib] (partner 1 µM)
[1]; first compound 0.01 µM
  relative viability: 1.04
[1]; first compound 0.03162 µM
  relative viability: 1.06
[1]; first compound 0.1 µM
  relative viability: 1.1
[1]; first compound 0.3162 µM
  relative viability: 1.09
[1]; first compound 1 µM
  relative viability: 0.969
[2]; first compound 0.01 µM
  relative viability: 1.13
[2]; first compound 0.03162 µM
  relative viability: 1.18
[2]; first compound 0.1 µM
  relative viability: 1.22
[2]; first compound 0.3162 µM
  relative viability: 1.13
[2]; first compound 1 µM
  relative viability: 0.976
[3]; first compound 0.01 µM
  relative viability: 1.11
[3]; first compound 0.03162 µM
  relative viability: 0.916
[3]; first compound 0.1 µM
  relative viability: 0.98
[3]; first compound 0.3162 µM
  relative viability: 0.799
[3]; first compound 1 µM
  relative viability: 0.18
[4]; first compound 0.01 µM
  relative viability: 0.931
[4]; first compound 0.03162 µM
  relative viability: 1.04
[4]; first compound 0.1 µM
  relative viability: 0.969
[4]; first compound 0.3162 µM
  relative viability: 0.947
[4]; first compound 1 µM
  relative viability: 0.817
[5]; first compound 0.01 µM
  relative viability: 0.739
[5]; first compound 0.03162 µM
  relative viability: 0.679
[5]; first compound 0.1 µM
  relative viability: 0.724
[5]; first compound 0.3162 µM
  relative viability: 0.647
[5]; first compound 1 µM
  relative viability: 0.861
[6]; first compound 0.01 µM
  relative viability: 1.1
[6]; first compound 0.03162 µM
  relative viability: 1.09
[6]; first compound 0.1 µM
  relative viability: 0.997
[6]; first compound 0.3162 µM
  relative viability: 1.11
[6]; first compound 1 µM
  relative viability: 0.738
[7]; first compound 0.01 µM
  relative viability: 0.179
[7]; first compound 0.03162 µM
  relative viability: 0.209
[7]; first compound 0.1 µM
  relative viability: 0.214
[7]; first compound 0.3162 µM
  relative viability: 0.26
[7]; first compound 1 µM
  relative viability: 0.189
[8]; first compound 0.01 µM
  relative viability: 0.691
[8]; first compound 0.03162 µM
  relative viability: 0.597
[8]; first compound 0.1 µM
  relative viability: 0.618
[8]; first compound 0.3162 µM
  relative viability: 0.645
[8]; first compound 1 µM
  relative viability: 0.308
[9]; first compound 0.01 µM
  relative viability: 0.612
[9]; first compound 0.03162 µM
  relative viability: 0.568
[9]; first compound 0.1 µM
  relative viability: 0.526
[9]; first compound 0.3162 µM
  relative viability: 0.432
[9]; first compound 1 µM
  relative viability: 0.397
[10]; first compound 0.01 µM
  relative viability: 1.25
[10]; first compound 0.03162 µM
  relative viability: 1.25
[10]; first compound 0.1 µM
  relative viability: 1.46
[10]; first compound 0.3162 µM
  relative viability: 1.12
[10]; first compound 1 µM
  relative viability: 0.953
[11]; first compound 0.01 µM
  relative viability: 1.05
[11]; first compound 0.03162 µM
  relative viability: 0.82
[11]; first compound 0.1 µM
  relative viability: 0.994
[11]; first compound 0.3162 µM
  relative viability: 0.801
[11]; first compound 1 µM
  relative viability: 0.358
[12]; first compound 0.01 µM
  relative viability: 1.19
[12]; first compound 0.03162 µM
  relative viability: 1.26
[12]; first compound 0.1 µM
  relative viability: 1.35
[12]; first compound 0.3162 µM
  relative viability: 1.25
[12]; first compound 1 µM
  relative viability: 1.14
[13]; first compound 0.01 µM
  relative viability: 1.09
[13]; first compound 0.03162 µM
  relative viability: 1.01
[13]; first compound 0.1 µM
  relative viability: 1.15
[13]; first compound 0.3162 µM
  relative viability: 1.1
[13]; first compound 1 µM
  relative viability: 1.04
[14]; first compound 0.01 µM
  relative viability: 0.659
[14]; first compound 0.03162 µM
  relative viability: 0.631
[14]; first compound 0.1 µM
  relative viability: 0.517
[14]; first compound 0.3162 µM
  relative viability: 0.517
[14]; first compound 1 µM
  relative viability: 0.252
[15]; first compound 0.01 µM
  relative viability: 0.975
[15]; first compound 0.03162 µM
  relative viability: 0.727
[15]; first compound 0.1 µM
  relative viability: 0.719
[15]; first compound 0.3162 µM
  relative viability: 0.135
[15]; first compound 1 µM
  relative viability: 0.0126
[16]; first compound 0.01 µM
  relative viability: 1.01
[16]; first compound 0.03162 µM
  relative viability: 0.984
[16]; first compound 0.1 µM
  relative viability: 0.842
[16]; first compound 0.3162 µM
  relative viability: 0.843
[16]; first compound 1 µM
  relative viability: 0.811
[17]; first compound 0.01 µM
  relative viability: 0.282
[17]; first compound 0.03162 µM
  relative viability: 0.333
[17]; first compound 0.1 µM
  relative viability: 0.311
[17]; first compound 0.3162 µM
  relative viability: 0.219
[17]; first compound 1 µM
  relative viability: 0.118
[18]; first compound 0.01 µM
  relative viability: 0.982
[18]; first compound 0.03162 µM
  relative viability: 1.01
[18]; first compound 0.1 µM
  relative viability: 0.942
[18]; first compound 0.3162 µM
  relative viability: 0.978
[18]; first compound 1 µM
  relative viability: 0.627
[19]; first compound 0.01 µM
  relative viability: 0.975
[19]; first compound 0.03162 µM
  relative viability: 0.994
[19]; first compound 0.1 µM
  relative viability: 0.995
[19]; first compound 0.3162 µM
  relative viability: 0.891
[19]; first compound 1 µM
  relative viability: 0.425
[20]; first compound 0.01 µM
  relative viability: 0.929
[20]; first compound 0.03162 µM
  relative viability: 0.966
[20]; first compound 0.1 µM
  relative viability: 0.999
[20]; first compound 0.3162 µM
  relative viability: 0.987
[20]; first compound 1 µM
  relative viability: 0.927
[21]; first compound 0.01 µM
  relative viability: 0.843
[21]; first compound 0.03162 µM
  relative viability: 0.989
[21]; first compound 0.1 µM
  relative viability: 0.99
[21]; first compound 0.3162 µM
  relative viability: 0.891
[21]; first compound 1 µM
  relative viability: 0.752
